# From patent US20240076609A1, “COMPOSITIONS AND METHODS FOR CULTURING AND EXPANDING CELLS” (LIFE TECHNOLOGIES CORPORATION, priority 2017, published 2024)
# Several values for one entry are separate records, joined by “and”; a condition that tells them apart may be missing. Equal values may be shown once.
# Columns and labels:
# [1] = test system: mixed CD4+ T cells and CD8+ T cells; assay: Expansion of mixed CD4+ and CD8+ T cells at set ratios (5:1, 10:1) with 2-DG; type: cell-based, human; conditions: for Cultured T Cell Population Doublings at 5:1 CD4+:CD8+ Cells / Cultured T Cell Population Doublings at 10:1 CD4+:CD8+ Cells: 0.25 mM 2-DG
# Protocol: T cell activation and expansion: T cells (seeding density 1×10^6 vc/mL) were activated with DYNABEADS® Human T-Expander CD3/CD28 (Thermo Fisher Scientific, Cat. No. 11141D) at a ratio of 3 beads per T cell and cultured in serum-free medium, animal origin free medium. T cells were counted on days 5, 7, 10, and 12 on a Vi-CELL XR analyzer (Beckman Coulter, Indianapolis IN) and fed with or without 2-DG (0.25 mM, 0.5 mM, 1 mM, 2 mM, and 4 mM) and 5% human AB serum to a density of 5×10^5 vc/mL on days 3, 5, and 7 and 1×10^6 vc/mL on day 10. For some studies, CD8+ and CD4+ T cells were isolated from PBMCs by negative selection using Untouched Human CD8+ and CD4+ T Cells Kits. Naïve and non-naïve T cells were isolated from enriched T cells by positive selection using CD45RA nanobeads (Miltenyi). CD4+ and CD8+ T cells were mixed at two different CD4+:CD8+ ratios (5:1 and 10:1) to determine the effect of 2-DG on CD8+ T cells. All conditions with and without 2-DG expanded to about 6 to 7 population doublings. Results illustrate that the effect of 2-DG treatment in cell growth was similar in both mixtures. (FIGS. 19 and 20). In FIGS. 38 and 39, CD4+ and CD8+ T cells were mixed at two different CD4:CD8 ratios (5:1 and 10:1) to determine the effect of 2-DG on CD8+ T cells. All conditions with and without 2-DG expanded to about 6 to 7 population doublings. Results illustrate that the effect of 2-DG treatment in cell growth was similar in both mixtures.
# Primary human T cells = assay: T cell expansion with 2-DG introduced at days 0, 3, 5, 7 or at every feed; type: cell-based
# Protocol: Stimulation of T cells with DYNABEADS® Human T-Expander CD3/CD28 at a ratio of 3 beads per T cell and cultured in serum-free, animal origin free medium and culturing the cells with 2-DG. Followed by feeding the cells with 2-DG at various time points (day 3, day 5, day 7, and every time cells were fed).
# Treatment with supplement was started on day 0, 3, 5, 7 and maintained with subsequent feedings. T cells were cultured for 12 days in serum-free T cell medium and in X-VIVO™ 15 medium supplemented with 5% human AB serum.
# 2-DG was cultured with the cells on day 0, 3, 5, 7 and maintained with subsequent feedings. T cells were cultured for 12 days in serum-free T cell medium and in medium with 5% Human AB Serum.
structure (smiles),measurement,setting,value
"O=CC[C@@H](O)[C@H](O)[C@H](O)CO [2-DG, 2-Deoxy-D-Glucose]",Cultured T Cell Population Doublings at 5:1 CD4+:CD8+ Cells,[1]; day 5,2.84 and 1.95
same,Cultured T Cell Population Doublings at 10:1 CD4+:CD8+ Cells,[1]; day 5,1.97
same,Cultured T Cell Population Doublings at 5:1 CD4+:CD8+ Cells,[1]; day 7,5.44 and 2.84
same,Cultured T Cell Population Doublings at 10:1 CD4+:CD8+ Cells,[1]; day 7,2.98
same,Cultured T Cell Population Doublings at 5:1 CD4+:CD8+ Cells,[1]; day 10,6.17 and 5.44
same,Cultured T Cell Population Doublings at 10:1 CD4+:CD8+ Cells,[1]; day 10,5.67
same,Cultured T Cell Population Doublings at 10:1 CD4+:CD8+ Cells,[1]; day 12,6.25
same,population doublings,[1]; CD4+:CD8+ ratios 5:1 and 10:1,6 to 7 population doublings
same,Cultured T Cell Population Doublings,"Primary human T cells; 0.25 mM 2-DG at Day 0, culture day 0",0
same,Cultured T Cell Population Doublings,"Primary human T cells; 0.25 mM 2-DG at Day 0, culture day 5",1.71
same,Cultured T Cell Population Doublings,"Primary human T cells; 0.25 mM 2-DG at Day 0, culture day 7",3.69
same,Cultured T Cell Population Doublings,"Primary human T cells; 0.25 mM 2-DG at Day 0, culture day 10",6.53
same,Cultured T Cell Population Doublings,"Primary human T cells; 0.25 mM 2-DG at Day 0, culture day 12",7.47
same,Cultured T Cell Population Doublings,"Primary human T cells; 0.25 mM 2-DG at Day 0, day 5",1.71
same,Cultured T Cell Population Doublings,"Primary human T cells; 0.25 mM 2-DG at Day 0, day 7",3.69
same,Cultured T Cell Population Doublings,"Primary human T cells; 0.25 mM 2-DG at Day 0, day 10",6.53
same,Cultured T Cell Population Doublings,"Primary human T cells; 0.25 mM 2-DG at Day 0, day 12",7.47
same,Cultured T Cell Population Doublings,"Primary human T cells; 0.25 mM 2-DG at Day 3, culture day 0",0
same,Cultured T Cell Population Doublings,"Primary human T cells; 0.25 mM 2-DG at Day 3, culture day 5",1.90
same,Cultured T Cell Population Doublings,"Primary human T cells; 0.25 mM 2-DG at Day 3, culture day 7",3.36
same,Cultured T Cell Population Doublings,"Primary human T cells; 0.25 mM 2-DG at Day 3, culture day 10",5.80
same,Cultured T Cell Population Doublings,"Primary human T cells; 0.25 mM 2-DG at Day 3, culture day 12",6.34
same,Cultured T Cell Population Doublings,"Primary human T cells; 0.25 mM 2-DG at Day 3, day 5",1.90
same,Cultured T Cell Population Doublings,"Primary human T cells; 0.25 mM 2-DG at Day 3, day 7",3.36
same,Cultured T Cell Population Doublings,"Primary human T cells; 0.25 mM 2-DG at Day 3, day 10",5.80
same,Cultured T Cell Population Doublings,"Primary human T cells; 0.25 mM 2-DG at Day 3, day 12",6.34
same,Cultured T Cell Population Doublings,"Primary human T cells; 0.25 mM 2-DG at Day 5, culture day 0",0
same,Cultured T Cell Population Doublings,"Primary human T cells; 0.25 mM 2-DG at Day 5, culture day 5",1.75
same,Cultured T Cell Population Doublings,"Primary human T cells; 0.25 mM 2-DG at Day 5, culture day 7",3.50
same,Cultured T Cell Population Doublings,"Primary human T cells; 0.25 mM 2-DG at Day 5, culture day 10",5.82
same,Cultured T Cell Population Doublings,"Primary human T cells; 0.25 mM 2-DG at Day 5, culture day 12",6.59
same,Cultured T Cell Population Doublings,"Primary human T cells; 0.25 mM 2-DG at Day 5, day 5",1.75
same,Cultured T Cell Population Doublings,"Primary human T cells; 0.25 mM 2-DG at Day 5, day 7",3.50
same,Cultured T Cell Population Doublings,"Primary human T cells; 0.25 mM 2-DG at Day 5, day 10",5.82
same,Cultured T Cell Population Doublings,"Primary human T cells; 0.25 mM 2-DG at Day 5, day 12",6.59
same,Cultured T Cell Population Doublings,"Primary human T cells; 0.25 mM 2-DG at Day 7, culture day 0",0
same,Cultured T Cell Population Doublings,"Primary human T cells; 0.25 mM 2-DG at Day 7, culture day 5",1.70
same,Cultured T Cell Population Doublings,"Primary human T cells; 0.25 mM 2-DG at Day 7, culture day 7",3.48
same,Cultured T Cell Population Doublings,"Primary human T cells; 0.25 mM 2-DG at Day 7, culture day 10",5.83
same,Cultured T Cell Population Doublings,"Primary human T cells; 0.25 mM 2-DG at Day 7, culture day 12",6.44
same,Cultured T Cell Population Doublings,"Primary human T cells; 0.25 mM 2-DG at Day 7, day 5",1.70
same,Cultured T Cell Population Doublings,"Primary human T cells; 0.25 mM 2-DG at Day 7, day 7",3.48
same,Cultured T Cell Population Doublings,"Primary human T cells; 0.25 mM 2-DG at Day 7, day 10",5.83
same,Cultured T Cell Population Doublings,"Primary human T cells; 0.25 mM 2-DG at Day 7, day 12",6.44
same,population doublings,"Primary human T cells; 0.25 mM 2-DG at day 0, 3, 5, 7 and every feed",6 to 7 population doublings
same,Cultured T Cell Population Doublings,"Primary human T cells; 0.25 mM 2-DG at every feed, culture day 0",0
same,Cultured T Cell Population Doublings,"Primary human T cells; 0.25 mM 2-DG at every feed, culture day 5",1.61
same,Cultured T Cell Population Doublings,"Primary human T cells; 0.25 mM 2-DG at every feed, culture day 7",3.80
same,Cultured T Cell Population Doublings,"Primary human T cells; 0.25 mM 2-DG at every feed, culture day 10",6.03
same,Cultured T Cell Population Doublings,"Primary human T cells; 0.25 mM 2-DG at every feed, culture day 12",6.82
same,Cultured T Cell Population Doublings,"Primary human T cells; 0.25 mM 2-DG at every feed, day 5",1.61
same,Cultured T Cell Population Doublings,"Primary human T cells; 0.25 mM 2-DG at every feed, day 7",3.80
same,Cultured T Cell Population Doublings,"Primary human T cells; 0.25 mM 2-DG at every feed, day 10",6.03
same,Cultured T Cell Population Doublings,"Primary human T cells; 0.25 mM 2-DG at every feed, day 12",6.82
